Source: patent US11279735B2, “Cyclic peptide antibiotics” (priority 2017, dated 2022)
In brackets after ≈: the same amount, converted by molar mass. *1 amine or outer side, *2 acyl side, *3 side chain or, on linkers, in order; H or OH if unused. Where a SMILES comes first, the peptide text is derived from it. [ ]: non-standard residue; d: D form. X2 = CCCCCC[C@@H](OC[C@@H](C)N[*:1])[C@@H](C)C(=O)[*:2]; X14 = CCCCCC[C@@H](OCCN[*:1])[C@@H](C)C(=O)[*:2]; aIle = CC[C@@H](C)[C@H](N)C(=O)O; aThr = C[C@H](O)[C@H](N)C(=O)O; NMeL = CN[C@@H](CC(C)C)C(=O)O; Chg = N[C@H](C(=O)O)C1CCCCC1; NMeNva = CCC[C@H](NC)C(=O)O; Dap = NC[C@H](N)C(=O)O

System: Escherichia coli (E. coli) strain CFT073 ATCC 700928
Assay type: cell-based
Conditions: ATCC 700928, 22 h
How it was run: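 Broth microdilution MIC per CLSI M07-A8 in cation-adjusted Mueller Hinton II broth with 0.002% Tween-80. Ten-point 2-fold series topped at 64, 4, 0.5 or 0.13 μg/mL depending on protocol. Final inoculum OD600 0.0005, incubated 22 h at 35 °C.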

## CCCCCC[C@H]1OC(=O)CNC(=O)[C@H]([C@H](C)O)NC(=O)[C@H](CN)NC(=O)[C@H](C2CCCCC2)NC(=O)[C@H](CC)N(C)C(=O)[C@@H]1C [Example 111, (6S,9S,12S,15S,18R,19R)-9-(aminomethyl)-12-cyclohexyl-15-ethyl-19-hexyl-16,18-dimethyl-6-[(1S)-1-hydroxyethyl]-1-oxa-4,7,10,13,16-pentazacyclononadecane-2,5,8,11,14,17-hexone]
  MIC: 8.8 µM (≈ 5.74 µg/mL)

## Cc1ccc(C[C@H]2C(=O)N(C)[C@@H](CC(C)C)C(=O)N[C@@H](C3CCCCC3)C(=O)N[C@@H](CN)C(=O)N[C@@H]([C@H](C)O)C(=O)NCC(=O)O[C@@H]2CCC(F)(F)F)cc1 [Example 112, (6S,9S,12S,15S,18R,19R)-9-(aminomethyl)-12-cyclohexyl-15-isobutyl-16-methyl-18-(p-tolylmethyl)-6-[(1S)-1-hydroxyethyl]-19-(3,3,3-trifluoropropyl)-1-oxa-4,7,10,13,16-pentazacyclononadecane-2,5,8,11,14,17-hexone]
  MIC: 71 µM (≈ 55.6 µg/mL)

## CCCCCC[C@H]1OCCNC(=O)[C@H](CO)NC(=O)[C@H](CN)NC(=O)[C@H]([C@H](C)CC)NC(=O)[C@H](CC(C)C)N(C)C(=O)[C@@H]1C [Example 113, (6S,9S,12S,15S,18R,19R)-9-(aminomethyl)-19-hexyl-6-(hydroxymethyl)-15-isobutyl-16,18-dimethyl-12-[(1R)-1-methylpropyl]-1-oxa-4,7,10,13,16-pentazacyclononadecane-5,8,11,14,17-pentone] (cyclo([Dap]S[X14][NMeL][aIle]))
  MIC: 50 µM (≈ 31.3 µg/mL)

## CC(C)C[C@H]1C(=O)N[C@@H](C2CCCCC2)C(=O)N[C@@H](CN)C(=O)N[C@@H]([C@H](C)O)C(=O)NCC(=O)O[C@H](CCCCCCC(C)(C)O)[C@@H](C)C(=O)N1C [Example 114, (6S,9S,12S,15S,18R,19R)-9-(aminomethyl)-12-cyclohexyl-19-(7-hydroxy-7-methyl-octyl)-15-isobutyl-16,18-dimethyl-6-[(1S)-1-hydroxyethyl]-1-oxa-4,7,10,13,16-pentazacyclononadecane-2,5,8,11,14,17-hexone]
  MIC: 15 µM (≈ 11.1 µg/mL)

## CCCCCC[C@H]1OCCNC(=O)[C@H]([C@H](C)O)NC(=O)[C@H](CN)NC(=O)[C@H](C2CCCCC2)NC(=O)[C@H](CC(C)C)N(C)C(=O)[C@@H]1C [Example 115, (6S,9S,12S,15S,18R,19R)-9-(aminomethyl)-12-cyclohexyl-19-hexyl-15-isobutyl-16,18-dimethyl-6-[(1S)-1-hydroxyethyl]-1-oxa-4,7,10,13,16-pentazacyclononadecane-5,8,11,14,17-pentone] (cyclo([Chg][Dap][aThr][X14][NMeL]))
  MIC: 8.7 µM (≈ 5.8 µg/mL)

## CCCCCC[C@H]1OC(=O)CNC(=O)[C@H](CNC(N)=O)NC(=O)[C@H](CN)NC(=O)[C@H](C2CCCCC2)NC(=O)[C@H](CC(C)C)N(C)C(=O)[C@@H]1C [Example 116, [(6S,9S,12S,15S,18R,19R)-9-(aminomethyl)-12-cyclohexyl-19-hexyl-15-isobutyl-16,18-dimethyl-2,5,8,11,14,17-hexaoxo-1-oxa-4,7,10,13,16-pentazacyclononadec-6-yl]methylurea]
  MIC: 50 µM (≈ 35.4 µg/mL)

## CC(C)C[C@H]1C(=O)N[C@@H](C2CCCCC2)C(=O)N[C@@H](CN)C(=O)N[C@@H]([C@H](C)O)C(=O)NCC(=O)O[C@H](CCCCC(F)CF)[C@@H](C)C(=O)N1C (stereo partly drawn) [Example 117, (6S,9S,12S,15S,18R,19R)-9-(aminomethyl)-12-cyclohexyl-19-(5,6-difluorohexyl)-15-isobutyl-16,18-dimethyl-6-[(1S)-1-hydroxyethyl]-1-oxa-4,7,10,13,16-pentazacyclononadecane-2,5,8,11,14,17-hexone]
  MIC: 25 µM (≈ 17.9 µg/mL)

## CCCCCC[C@H]1OC(=O)CNC(=O)[C@H]([C@H](C)O)NC(=O)[C@H](CO)NC(=O)[C@H](C2CCCCC2)NC(=O)[C@H](CC(C)C)N(C)C(=O)[C@@H]1C [Example 118, (6S,9S,12S,15S,18R,19R)-12-cyclohexyl-19-hexyl-9-(hydroxymethyl)-15-isobutyl-16,18-dimethyl-6-[(1S)-1-hydroxyethyl]-1-oxa-4,7,10,13,16-pentazacyclononadecane-2,5,8,11,14,17-hexone]
  MIC: 4.4 µM (≈ 3 µg/mL)

## CCCCCC[C@H]1OC(=O)CNC(=O)[C@H]([C@H](C)O)NC(=O)[C@H](CN)NC(=O)[C@H](C2CCCCC2)NC(=O)[C@H](CC(C)C)N(C)C(=O)[C@@H]1Cc1cccc(C)c1 [Example 119, (6S,9S,12S,15S,18R,19R)-9-(aminomethyl)-12-cyclohexyl-19-hexyl-15-isobutyl-16-methyl-18-(m-tolylmethyl)-6-[(1S)-1-hydroxyethyl]-1-oxa-4,7,10,13,16-pentazacyclononadecane-2,5,8,11,14,17-hexone]
  MIC: 3.1 µM (≈ 2.39 µg/mL)

## CCCCCC[C@H]1OC(=O)CNC(=O)[C@H]([C@H](C)O)NC(=O)[C@H](CN)NC(=O)[C@H](C2CCCCC2)NC(=O)[C@H](CC(C)C)N(C)C(=O)[C@@H]1Cc1ccccc1C [Example 120, (6S,9S,12S,15S,18R,19R)-9-(aminomethyl)-12-cyclohexyl-19-hexyl-15-isobutyl-16-methyl-18-(o-tolylinethyl)-6-[(1S)-1-hydroxyethyl]-1-oxa-4,7,10,13,16-pentazacyclononadecane-2,5,8,11,14,17-hexone]
  MIC: 3.1 µM (≈ 2.39 µg/mL)

## CCCCCC[C@H]1OC(=O)CNC(=O)[C@H]([C@H](C)O)NC(=O)[C@H](CN)NC(=O)[C@H](C2CCCCC2)NC(=O)[C@H](CC(C)C)N(C)C(=O)[C@@H]1Cc1ccc(C(F)(F)F)cc1 [Example 121, (6S,9S,12S,15S,18R,19R)-9-(aminomethyl)-12-cyclohexyl-19-hexyl-15-isobutyl-16-methyl-6-[(1S)-1-hydroxyethyl]-18-[[4-(trifluoromethyl)phenyl]methyl]-1-oxa-4,7,10,13,16-pentazacyclononadecane-2,5,8,11,14,17-hexone]
  MIC: 6.3 µM (≈ 5.2 µg/mL)

## CCC(F)CCC[C@H]1OC(=O)CNC(=O)[C@H]([C@H](C)O)NC(=O)[C@H](CN)NC(=O)[C@H]([C@H](C)CC)NC(=O)[C@H](CC(C)C)N(C)C(=O)[C@@H]1C (stereo partly drawn) [Example 122, (6S,9S,12S,15S,18R,19R)-9-(aminomethyl)-19-(4-fluorohexyl)-15-isobutyl-16,18-dimethyl-6-[(1S)-1-hydroxyethyl]-12-[(1R)-1-methylpropyl]-1-oxa-4,7,10,13,16-pentazacyclononadecane-2,5,8,11,14,17-hexone]
  MIC: 25 µM (≈ 16.8 µg/mL)

## CCCCCC[C@H]1OC(=O)CNC(=O)[C@H]([C@H](C)O)NC(=O)[C@H](CN)NC(=O)[C@H](C2CCCCC2)NC(=O)[C@H](CC(C)C)N(C)C(=O)[C@@H]1Cc1ccc(OC)cc1 [Example 123, (6S,9S,12S,15S,18R,19R)-9-(aminomethyl)-12-cyclohexyl-19-hexyl-6-[(1S)-1-hydroxyethyl]-15-isobutyl-18-[(4-methoxyphenyl)methyl]-16-methyl-1-oxa-4,7,10,13,16-pentazacyclononadecane-2,5,8,11,14,17-hexone]
  MIC: 12 µM (≈ 9.44 µg/mL)

## CCCCCC[C@H]1OC(=O)CNC(=O)[C@H](CNC(C)=O)NC(=O)[C@H](CN)NC(=O)[C@H](C2CCCCC2)NC(=O)[C@H](CC(C)C)N(C)C(=O)[C@@H]1C [Example 124, N-[[(6S,9S,12S,15S,18R,19R)-9-(aminomethyl)-12-cyclohexyl-19-hexyl-15-isobutyl-16,18-dimethyl-2,5,8,11,14,17-hexaoxo-1-oxa-4,7,10,13,16-pentazacyclononadec-6-yl]methyl]acetamide]
  MIC: 18 µM (≈ 12.7 µg/mL)

## CCCCCC[C@H]1OC(=O)CNC(=O)[C@H]([C@H](C)O)NC(=O)[C@H]([C@H](C)N)NC(=O)[C@H](C2CCCCC2)NC(=O)[C@H](CC(C)C)N(C)C(=O)[C@@H]1C [Example 125, (6S,9S,12S,15S,18R,19R)-12-cyclohexyl-19-hexyl-15-isobutyl-16,18-dimethyl-9-[(1S)-1-aminoethyl]-6-[(1S)-1-hydroxyetltyl]-1-oxa-4,7,10,13,16-pentazacyclononadecane-2,5,8,11,14,17-hexone]
  MIC: 3.2 µM (≈ 2.22 µg/mL)

## CCCCCC(C)[C@H]1OC(=O)CNC(=O)[C@H]([C@H](C)O)NC(=O)[C@H](CN)NC(=O)[C@H](C2CCCCC2)NC(=O)[C@H](CC(C)C)N(C)C(=O)[C@@H]1C (stereo partly drawn) [Example 126, (6S,9S,12S,15S,18R,19R)-9-(aminomethyl)-12-cyclohexyl-15-isobutyl-16,18-dimethyl-19-(1-methylhexyl)-6-[(1S)-1-hydroxyethyl]-1-oxa-4,7,10,13,16-pentazacyclononadecane-2,5,8,11,14,17-hexone]
  MIC: 3.1 µM (≈ 2.15 µg/mL)

## CCCCCC[C@H]1OC[C@@H](C)NC(=O)[C@H]([C@H](C)O)NC(=O)[C@H](CN)NC(=O)[C@H](C2CCCCC2)NC(=O)[C@H](CCC)N(C)C(=O)[C@@H]1C [Example 127, (3R,6S,9S,12S,15S,18R,19R)-9-(aminomethyl)-12-cyclohexyl-19-hexyl-3,16,18-trimethyl-15-propyl-6-[(1S)-1-hydroxyethyl]-1-oxa-4,7,10,13,16-pentazacyclononadecane-5,8,11,14,17-pentone] (cyclo([Chg][Dap][aThr][X2][NMeNva]))
  MIC: 4.4 µM (≈ 2.93 µg/mL)

## CCCCCC[C@H]1OC[C@@H](C)NC(=O)[C@H](COC)NC(=O)[C@H](CN)NC(=O)[C@H](C2CCCCC2)NC(=O)[C@H](CC(C)C)N(C)C(=O)[C@@H]1C [Example 128, (3R,6S,9S,12S,15S,18R,19R)-9-(aminomethyl)-12-cyclohexyl-19-hexyl-15-isobutyl-6-(methoxymethyl)-3,16,18-trimethyl-1-oxa-4,7,10,13,16-pentazacyclononadecane-5,8,11,14,17-pentone] (cyclo([Chg][Dap]S(Me)[X2][NMeL]))
  MIC: 3.1 µM (≈ 2.11 µg/mL)

## CCC[C@H]1C(=O)N[C@@H](C2CCCCCC2)C(=O)N[C@@H](CN)C(=O)N[C@@H]([C@H](C)O)C(=O)NCC(=O)O[C@H](CCC2CC3CCC2C3)[C@@H](C)C(=O)N1C (stereo partly drawn) [Example 129, (6S,9S,12S,15S,18R,19R)-9-(aminomethyl)-12-cycloheptyl-16,18-dimethyl-19-(2-norbornan-2-ylethyl)-15-propyl-6-[(1S)-1-hydroxyethyl]-1-oxa-4,7,10,13,16-pentazacyclononadecane-2,5,8,11,14,17-hexone]
  MIC: 0.66 µM (≈ 0.474 µg/mL)
